Source: patent US20200046671A1, “APOBEC3B MUTAGENESIS AND IMMUNOTHERAPY” (Regents of the University of Minnesota, priority 2015, published 2020)
“Also recorded” adds a separate entry of the source. Peptide text beside a SMILES is read from it. * marks the point of attachment. Cbz = O=C(OCc1ccccc1)*

Columns and labels:
Type in all cases: cell-based, human
[1] = test system: PMA-induced APOBEC3B upregulation; assay: Inhibitor pretreatment before PMA induction of APOBEC3B in MCF10A cells, RT-qPCR
Procedure: PMA is a well-known agonist of PKC, but it also affects other cellular processes. To determine whether APOBEC3B induction by PMA occurs through PKC signal transduction or an alternative mechanism, a panel of existing PKC inhibitors that vary with respect to class selectivity were analyzed. MCF10A cells were pre-treated for 30 minutes with varying concentrations of the pan-PKC inhibitor G66983 (Gschwendt et al., FEBS Lett. 392(2):77-80, 1996) and then treated for six hours with PMA (25 ng/mL). […] As additional controls, MCF10A cells were pretreated in parallel with the phosphoinositol 3 kinase (PI3K) inhibitor, LY294002, and the mitogen-activated protein kinase kinase (MEK) inhibitor, U0126, prior to PMA induction (FIGS. 2B and 2C).
(§1) For induction experiments, 2.5×10^5 cells were plated in a 6-well plate 1 day prior to drug treatment. PMA was then added to the media and incubated at 37° C. with 5% CO2 for six hours unless otherwise indicated. Cells were harvested, RNA was extracted, and RT-qPCR was performed as previously reported (Refsland et al. 2010, Nucleic Acids Res 38:4274-4284). For experiments utilizing inhibitors, cells were pretreated with inhibitors 30 minutes prior to PMA induction (25 ng/mL). PMA (Thermo Fisher Scientific, Inc., Waltham, Mass.), cyclohexamide (Acros Organics, Thermo Fisher Scientific, Inc., Waltham, Mass.), G66983 (Cayman Chemical co., Ann Arbor, Mich.), LY294002 (EMD Chemicals, Merck KGaA, Darmstadt, Germany), U0126 (EMD Chemicals, Merck KGaA, Darmstadt, Germany), AEB071 (Medchemexpress, Monmouth Junction, N.J.), Go6976 (Enzo Life Sciences, Inc., Farmingdale, N.Y.), BAY 11-7082 (R&D Systems, INc., Minneapolis, Minn.), and MG132 (Thermo Fisher Scientific, Inc., Waltham, Mass.) were stored as recommended. NIKi/Compound 31 was synthesized as described (Li et al., 2013, Bioorganic & Medicinal Chemistry Letters 23:1238-1244).

APOBEC3B [2] = assay: Endogenous APOBEC3B expression in cancer cell lines treated with PKC inhibitor; conditions: 10 μM, 48 hours; breast, ovarian, bladder and head/neck cancer cell lines
Procedure: Four breast cancer cell lines, four ovarian cancer cell lines, four bladder cancer cell lines, and four head/neck cancer cell lines were analyzed to determine whether the constitutively high levels of endogenous APOBEC3B observed in many human cancer cell lines occurs through the PKC pathway. The selected cell lines expressed a 10-fold range of endogenous APOBEC3B mRNA levels (FIG. 4A).
(§2) Each line was treated for 48 hours with 10 μM AEB071, and then APOBEC3B mRNA and protein levels were quantified by RT-qPCR and immunoblotting. As above, no effects on the cell cycle or cell viability were observed (data not shown). This is important since higher concentrations of AEB071 are known to cause cell cycle perturbations and apoptosis in certain cell types. APOBEC3B mRNA levels were reduced by more than half in 7/16 cell lines, including the breast cancer cell lines MDA-MB-468, MDA-MB-453, and HCC1806, the ovarian cancer cell line OVCAR5, and the head/neck lines SQ-20B, JSQ3, and TR146 (FIG. 4B, histogram). Changes of protein levels largely mirrored the mRNA results (FIG. 4B, immunoblot).

cancer cell lines = assay: Cell cycle and viability of AEB071-treated cancer cell lines; conditions: 10 μM, 48 hours, data not shown
Procedure: as §2

MCF10A cells = assay: Morphology and viability of inhibitor-treated MCF10A cells; conditions: low concentrations used (5 μM and around), data not shown
Procedure: PMA is a well-known agonist of PKC, but it also affects other cellular processes. To determine whether APOBEC3B induction by PMA occurs through PKC signal transduction or an alternative mechanism, a panel of existing PKC inhibitors that vary with respect to class selectivity were analyzed. MCF10A cells were pre-treated for 30 minutes with varying concentrations of the pan-PKC inhibitor G66983 (Gschwendt et al., FEBS Lett. 392(2):77-80, 1996) and then treated for six hours with PMA (25 ng/mL). […] APOBEC3B was suppressed to background levels with 5 μM G66983, as well as higher concentrations (FIG. 2A). […] As additional controls, MCF10A cells were pretreated in parallel with the phosphoinositol 3 kinase (PI3K) inhibitor, LY294002, and the mitogen-activated protein kinase kinase (MEK) inhibitor, U0126, prior to PMA induction (FIGS. 2B and 2C).

APOBEC3B [3] = assay: PMA induction of APOBEC3B mRNA in MCF10A cells, RT-qPCR
Procedure: (§3) A panel of immortalized normal human epithelial cells lines and breast cancer cell lines was treated with the model PKC-NFκB pathway activator PMA (or equal amounts of DMSO as a negative control) and previously validated reverse transcription quantitative PCR (RT-qPCR) assays were used to measure mRNA levels of all eleven human APOBEC family members. APOBEC3B mRNA was induced specifically by PMA treatment of several lines including the immortalized normal breast epithelial cell line MCF10A (FIG. 6). Under standard cell culture conditions, MCF10A expresses low levels of APOBEC3B and APOBEC3F, even lower levels of APOBEC3G and APOBEC3H, high levels of APOBEC3C, and undetectable levels of all other APOBEC family members.
as §1

APOBEC family members = assay: mRNA levels of the other APOBEC family members after PMA treatment, RT-qPCR; conditions: MCF10A cells
Procedure: as §3
For induction experiments, 2.5×10^5 cells were plated in a 6-well plate 1 day prior to drug treatment. PMA was then added to the media and incubated at 37° C. with 5% CO2 for six hours unless otherwise indicated. Cells were harvested, RNA was extracted, and RT-qPCR was performed as previously reported (Refsland et al. 2010, Nucleic Acids Res 38:4274-4284). For experiments utilizing inhibitors, cells were pretreated with inhibitors 30 minutes prior to PMA induction (25 ng/mL). […]

PKCα (PRKCA) = assay: RNA sequencing of PMA-treated MCF10A cells, PKC isoforms; conditions: RNAseq, in comparison to DMSO
Procedure: (§4) Two sets of MCF10A cells in duplicate were treated every eight hours with media supplemented with PMA or DMSO for 48 hours. At 48 hours, RNA was extracted using an RNeasy Mini Kit (Qiagen, Hilden, Germany). Total RNA was submitted to the University of Minnesota Genomics Center for sequencing on the Illumina HiSeq 2000 platform. Raw reads were analyzed using both DESeq2 (Love et al., 2014, Genome Biol. 15:550) and the Tuxedo suite (Trapnell et al., 2012, Nat Protoc. 7:562-578) to identify changes in mRNA expression in PMA treated versus untreated cells.

[4] = test system: RELA, NFKB1, RELB and NFKB2; assay: RNA sequencing of PMA-treated MCF10A cells, NFκB components; conditions: RNAseq
Procedure: as §4

APOBEC3B promoter region = assay: Chromatin immunoprecipitation after PMA treatment of MCF10A cells; conditions: PMA for two hours, ChIP-qPCR
Procedure: Next, a series of chromatin immunoprecipitation (ChIP) experiments were performed to determine whether the canonical or noncanonical NFκB pathway is responsible for upregulating APOBEC3B. Primer sets were designed for each of the predicted NFκB binding sites near the APOBEC3B transcriptional start site, as well as a control set in the promoter region of NFKBIA (FIG. 3E). ChIP was performed for RELA, RELB, RNA POL II (positive control), and isotype matched IgG (negative control). RELA, RELB, and RNA POL II were all bound to the NFKBIA promoter following PMA treatment (FIG. 3F). In addition, RNA POL II strongly bound to the APOBEC3B gene near the transcriptional start site (FIG. 3F). Also, RELB bound both near the transcriptional start site and at sites 4 and 5, which are located in intron 2 and too close together to be distinguished by this procedure. Binding also may occur at lower levels at site 3 in intron 1, but the IgG signal was too high to distinguish background from actual binding. These ChIP data strongly implicate the noncanonical NFκB pathway, specifically RELB (and not RELA), in directly inducing APOBEC3B transcription in response to PMA activation of PKC.
MCF10A cells were treated with either DMSO or 25 ng/mL PMA for two hours. Cross-linking was performed with 1% formaldehyde for 10 minutes at room temperature and quenched with 150 mM glycine. […]

[5] = 30-minute pretreatment, then PMA 25 ng/mL for six hours

CN1CCN(c2nc(C3=C(c4c[nH]c5ccccc45)C(=O)NC3=O)c3ccccc3n2)CC1 [AEB071]
potency relative to G66983 in suppressing APOBEC3B induction [1]: approximately 10 fold
effect on PMA-induced APOBEC3B induction [1, 5]: inhibited; also recorded: clear dose dependent suppression
concentration causing complete suppression of APOBEC3B induction ([1]; pretreatment, then PMA): 500 nM
cell lines in which APOBEC3B mRNA levels were reduced by more than half (APOBEC3B [2]): 7/16
effects on the cell cycle or cell viability (cancer cell lines): no effects

Cc1ccc(S(=O)(=O)/C=C/C#N)cc1 [BAY 11-7082]
effect on PMA-induced APOBEC3B induction [1, 5]: dose responsive inhibition; also recorded: strong dose-responsive drops

CN(C)CCCn1cc(C2=C(c3c[nH]c4ccccc34)C(=O)NC2=O)c2ccccc21 [BIM-1]
effect on PMA-induced APOBEC3B induction [1, 5]: inhibited

COc1ccc2c(c1)c(C1=C(c3c[nH]c4ccccc34)C(=O)NC1=O)cn2CCCN(C)C [G66983]
concentration at which APOBEC3B was suppressed to background levels [1, 5]: 5 µM
effect on PMA-induced APOBEC3B induction [1, 5]: dose responsive suppression
effect on PMA-induced APOBEC3B induction ([1]; 30-minute pretreatment, then PMA 25 ng/mL for six hours, listed as Go6983): inhibited
morphological defects or viability issues (MCF10A cells): No morphological defects or viability issues

Cn1c2ccccc2c2c3c(c4c5ccccc5n(CCC#N)c4c21)CNC3=O [Go6976]
effect on PMA-induced APOBEC3B induction [1, 5]: inhibited

CC(C)C[C@@H](C=O)NC(=O)[C@H](CC(C)C)NC(=O)[C@H](CC(C)C)NC(=O)OCc1ccccc1 [MG132] (Cbz-Leu-Leu-Leu-aldehyde)
effect on PMA-induced APOBEC3B induction [1, 5]: dose responsive inhibition; also recorded: decreased in a dose dependent manner

CCCCCCCCCCCCCC(=O)O[C@@H]1[C@@H](C)[C@@]2(O)[C@@H](C=C(CO)C[C@]3(O)C(=O)C(C)=C[C@@H]23)[C@@H]2C(C)(C)[C@]12OC(C)=O [PMA, phorbol 12-myristate 13-acetate]
time after treatment at which significant APOBEC3B mRNA induction was detected (APOBEC3B [3]; PMA 25 ng/ml): 30 min
time post-treatment by which maximal APOBEC3B mRNA levels were observed (APOBEC3B [3]; PMA 25 ng/ml): three
PMA concentration at which APOBEC3B induction was near maximal (APOBEC3B [3]; dose response): 25 ng/mL
lowest PMA concentration that induced APOBEC3B (APOBEC3B [3]; dose response): 1 ng/mL
changes in expression levels of other APOBEC family members (APOBEC family members): no detectable changes
PKCα mRNA levels after PMA treatment (PKCα (PRKCA)): unchanged
expression levels of canonical and noncanonical NFκB components after PMA treatment [4]: unaffected
recruitment of RELB and p105/p52 to the APOBEC3B promoter region (APOBEC3B promoter region): specifically and robustly recruited

NC(=O)Nc1sc(-c2ccc(F)cc2)cc1C(N)=O [TPCA-1]
effect on PMA-induced APOBEC3B induction [1, 5]: near the IC50 for IKKα, not IKKβ

N#CC(=C(/N)Sc1ccccc1N)/C(C#N)=C(\N)Sc1ccccc1N [U0126]
effect on PMA-induced APOBEC3B induction [1, 5]: no suppression
effect on PMA-induced APOBEC3B induction ([1]; 30-minute pretreatment, then PMA 25 ng/mL for six hours, listed as UO126): not

C[C@@H]1C[C@@H]([C@H](O)CC2CC(=O)NC(=O)C2)C(=O)[C@@H](C)C1 [cyclohexamide]
effect on kinetics of APOBEC3B upregulation by PMA ([1]; 30-minute pretreatment with 10 μg/mL cyclohexamide): not affected
